The results in this text go back to US20240368173A1, “TRICYCLIC GPR65 MODULATORS” (PATHIOS THERAPEUTICS LIMITED, priority 2021, published 2024).

In general, IC50 refers to the concentration needed to halve the response being measured.

Bounds are passed on as bounds.

Chain of human recombinant GPR65 (Q8IYL9 whole entry): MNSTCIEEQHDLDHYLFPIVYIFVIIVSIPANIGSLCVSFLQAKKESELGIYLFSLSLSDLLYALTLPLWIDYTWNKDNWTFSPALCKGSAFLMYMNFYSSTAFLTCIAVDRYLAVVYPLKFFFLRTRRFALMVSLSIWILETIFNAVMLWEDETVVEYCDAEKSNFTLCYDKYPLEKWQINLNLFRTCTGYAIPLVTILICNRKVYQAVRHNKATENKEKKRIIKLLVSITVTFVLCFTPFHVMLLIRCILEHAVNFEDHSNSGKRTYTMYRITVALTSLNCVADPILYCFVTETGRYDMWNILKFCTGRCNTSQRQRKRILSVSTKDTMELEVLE

One experiment has as its target human recombinant GPR65 (Homo sapiens, UniProt Q8IYL9). The experiment can be described thus: Human GPR65 cAMP HTRF antagonist assay. The experiment is classed as cell-based.
Details: not given
The procedure, abridged:
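1321N1 astrocytoma cells stably expressing hrGPR65, with IBMX and EDTA, were preincubated with compound 30 min at room temperature, then acid-activated at assay pH 7.2 (control pH 7.9) for 30 min. cAMP read by HTRF (665/620 nm ratio); IC50 from 4-parameter fit normalised to high/low controls.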
For orientation: Time-resolved FRET reads energy transfer from a long-lived donor to a nearby acceptor.
For the molecule `O=C(Nc1cc(Br)c(Cl)cc1F)N1C2CCC1c1c[nH]c(=O)nc1C2` (racemic) [Compound 15, (±)—N-(5-Bromo-4-chloro-2-fluorophenyl)-2-oxo-3,5,6,7,8,9-hexahydro-2H-5,8-epiminocyclohepta[d]pyrimidine-10-carboxamide], the IC50 was < 500 nM.

As for `O=C(Nc1ccc(OC(F)(F)F)c(Cl)c1)N1[C@H]2CC[C@@H]1c1n[nH]c(=O)cc1C2` [Compound 46, (6S,9R)-N-(3-Chloro-4-(trifluoromethoxy)phenyl)-3-oxo-3,5,6,7,8,9-hexahydro-2H-6,9-epiminocyclohepta[c]pyridazine-10-carboxamide], the IC50 was < 500 nM.

Take `O=C(Nc1ccc(Br)c(Cl)c1)N1[C@H]2CC[C@@H]1c1n[nH]c(=O)cc1C2` [Compound 39, (6S,9R)-N-(4-Bromo-3-chlorophenyl)-3-oxo-3,5,6,7,8,9-hexahydro-2H-6,9-epiminocyclohepta[c]pyridazine-10-carboxamide]: the IC50 was < 500 nM.

As for `O=C(Nc1cc(Cl)c(-c2ccc3nonc3n2)cc1F)N1[C@H]2CC[C@@H]1c1n[nH]c(=O)cc1C2` [Compound 314, (6S,9R)-N-(4-([1,2,5]Oxadiazolo[3,4-b]pyridin-5-yl)-5-chloro-2-fluorophenyl)-3-oxo-3,5,6,7,8,9-hexahydro-2H-6,9-epiminocyclohepta[c]pyridazine-10-carboxamide], the IC50 was < 500 nM.

With `O=C(Nc1cc(Cl)c(-c2ccnc(F)c2)cc1F)N1[C@H]2CC[C@@H]1c1c[nH]c(=O)cc1C2` [Compound 267, (6S,9R)-N-(5-Chloro-2-fluoro-4-(2-fluoropyridin-4-yl)phenyl)-3-oxo-3,5,6,7,8,9-hexahydro-2H-6,9-epiminocyclohepta[c]pyridine-10-carboxamide], the IC50 was < 500 nM.

Regarding `Cc1nc2cc(-c3cc(F)c(NC(=O)N4[C@H]5CC[C@@H]4c4c[nH]c(=O)cc4C5)cc3Cl)ccc2o1` [Compound 232, (6S,9R)-N-(5-Chloro-2-fluoro-4-(2-methylbenzo[d]oxazol-5-yl)phenyl)-3-oxo-3,5,6,7,8,9-hexahydro-2H-6,9-epiminocyclohepta[c]pyridine-10-carboxamide], the IC50 is < 500 nM.

As for `O=C(Nc1cc(Cl)c(-c2cncc(C(F)F)c2)cc1F)N1[C@H]2CC[C@@H]1c1n[nH]c(=O)cc1C2` [Compound 333, (6S,9R)-N-(5-Chloro-4-(5-(difluoromethyl)pyridin-3-yl)-2-fluorophenyl)-3-oxo-3,5,6,7,8,9-hexahydro-2H-6,9-epiminocyclohepta[c]pyridazine-10-carboxamide], the IC50 was < 500 nM.

`Cc1cnccc1-c1cc(F)c(NC(=O)N2[C@H]3CC[C@@H]2c2n[nH]c(=O)cc2C3)cc1Cl` [Compound 125, (6S,9R)-N-(5-Chloro-2-fluoro-4-(3-methylpyridin-4-yl)phenyl)-3-oxo-3,5,6,7,8,9-hexahydro-2H-6,9-epiminocyclohepta[c]pyridazine-10-carboxamide]: the 50% inhibitory concentration (IC50) was < 500 nM.

Take `O=C(Nc1cc(C(F)(F)F)c(-c2ccc(F)nc2)cc1F)N1[C@H]2CC[C@@H]1c1n[nH]c(=O)cc1C2` [Compound 212, (6S,9R)-N-(2-Fluoro-4-(6-fluoropyridin-3-yl)-5-(trifluoromethyl)phenyl)-3-oxo-3,5,6,7,8,9-hexahydro-2H-6,9-epiminocyclohepta[c]pyridazine-10-carboxamide]: the IC50 is < 500 nM.

With `COc1ccc(-c2cc(F)c(NC(=O)N3[C@H]4CC[C@@H]3c3ccnc(F)c3C4)cc2Cl)cn1` [Compound 185, (5R,8S)-N-(5-Chloro-2-fluoro-4-(6-methoxypyridin-3-yl)phenyl)-1-fluoro-6,7,8,9-tetrahydro-5H-5,8-epiminocyclohepta[c]pyridine-10-carboxamide], the IC50 was < 500 nM.

Take `O=C(Nc1cc(Cl)c(F)cc1F)N1C2CCC1c1n[nH]c(=O)cc1C2` (racemic) [Compound 52, (±)-N-(5-Chloro-2,4-difluorophenyl)-3-oxo-3,5,6,7,8,9-hexahydro-2H-6,9-epiminocyclohepta[c]pyridazine-10-carboxamide]: the IC50 is < 500 nM.

As for `O=C(Nc1nnc(C2CCCCC2)s1)N1[C@H]2CC[C@@H]1c1ccnc(F)c1C2` [Compound 285, (5R,8S)—N-(5-cyclohexyl-1,3,4-thiadiazol-2-yl)-1-fluoro-6,7,8,9-tetrahydro-5H-5,8-epiminocyclohepta[c]pyridine-10-carboxamide], the IC50 is < 500 nM.

In the case of `CC(C)COc1ccc(-c2cc(F)c(NC(=O)N3[C@H]4CC[C@@H]3c3c[nH]c(=O)cc3C4)cc2Cl)cn1` [Compound 335, (6S,9R)-N-(5-Chloro-2-fluoro-4-(6-isobutoxypyridin-3-yl)phenyl)-3-oxo-3,5,6,7,8,9-hexahydro-2H-6,9-epiminocyclohepta[c]pyridine-10-carboxamide], the IC50 is < 500 nM.

Consider `C=C1c2c(ccnc2F)C2CCC1N2C(=O)Nc1cc(Cl)c(Cl)cc1F` (racemic) [Compound 154, (±)—N-(4,5-Dichloro-2-fluorophenyl)-1-fluoro-9-methylene-6,7,8,9-tetrahydro-5H-5,8-epiminocyclohepta[c]pyridine-10-carboxamide], for which the IC50 is < 500 nM.

In the case of `O=C(Nc1cc(Cl)c(-c2ccc(OCCC(F)(F)F)nc2)cc1F)N1[C@H]2CC[C@@H]1c1c[nH]c(=O)cc1C2` [Compound 332, (6S,9R)-N-(5-Chloro-2-fluoro-4-(6-(3,3,3-trifluoropropoxy)pyridin-3-yl)phenyl)-3-oxo-3,5,6,7,8,9-hexahydro-2H-6,9-epiminocyclohepta[c]pyridine-10-carboxamide], the IC50 was < 500 nM.

Turning to `O=C(Nc1cc(Cl)c(-c2ccc(OC3CCCC3)nc2)cc1F)N1[C@H]2CC[C@@H]1c1n[nH]c(=O)cc1C2` [Compound 336, (6S,9R)-N-(5-Chloro-4-(6-(cyclopentyloxy)pyridin-3-yl)-2-fluorophenyl)-3-oxo-3,5,6,7,8,9-hexahydro-2H-6,9-epiminocyclohepta[c]pyridazine-10-carboxamide], the IC50 was < 500 nM.

As for `O=C(Nc1cc(Cl)c(-c2ccc3nonc3c2F)cc1F)N1[C@H]2CC[C@@H]1c1n[nH]c(=O)cc1C2` [Compound 327, (6S,9R)-N-(5-Chloro-2-fluoro-4-(4-fluorobenzo[c][1,2,5]oxadiazol-5-yl)phenyl)-3-oxo-3,5,6,7,8,9-hexahydro-2H-6,9-epiminocyclohepta[c]pyridazine-10-carboxamide], the IC50 was < 500 nM.

In the case of `O=C(Nc1cc(Cl)c(-c2ccc(N3CCOCC3)nc2)cc1F)N1[C@H]2CC[C@@H]1c1n[nH]c(=O)cc1C2` [Compound 340, (6S,9R)-N-(5-Chloro-2-fluoro-4-(6-morpholinopyridin-3-yl)phenyl)-3-oxo-3,5,6,7,8,9-hexahydro-2H-6,9-epiminocyclohepta[c]pyridazine-10-carboxamide], the IC50 is < 500 nM.

For the molecule `O=C(Nc1cc(Cl)c(-c2ccc(OC3CCC3)nc2)cc1F)N1[C@H]2CC[C@@H]1c1c[nH]c(=O)cc1C2` [Compound 239, (6S,9R)-N-(5-Chloro-4-(6-cyclobutoxypyridin-3-yl)-2-fluorophenyl)-3-oxo-3,5,6,7,8,9-hexahydro-2H-6,9-epiminocyclohepta[c]pyridine-10-carboxamide], the IC50 was < 500 nM.

As to `O=C(Nc1cc(Cl)c(-c2ccc3conc3c2)cc1F)N1[C@H]2CC[C@@H]1c1n[nH]c(=O)cc1C2` [Compound 198, (6S,9R)-N-(4-(Benzo[c]isoxazol-6-yl)-5-chloro-2-fluorophenyl)-3-oxo-3,5,6,7,8,9-hexahydro-2H-6,9-epiminocyclohepta[c]pyridazine-10-carboxamide], the IC50 was < 500 nM.

Still in this experiment, the particulars now being: 1321N1-hrGPR65 cells, cAMP HTRF, assay pH 7.2; read-out: hGPR65 IC50 (Activity of selected compounds according to the invention).
As for `O=C(Nc1cc(Br)c(C(F)(F)F)cc1F)N1[C@@H]2CC[C@H]1c1n[nH]c(=O)cc1C2` [Compound 34, (6R,9S)-N-(5-Bromo-2-fluoro-4-(trifluoromethyl)phenyl)-3-oxo-3,5,6,7,8,9-hexahydro-2H-6,9-epiminocyclohepta[c]pyridazine-10-carboxamide], the IC50 is > 5000 nM.

For the molecule `N#Cc1cc(F)c(NC(=O)N2C3CCC2c2n[nH]c(=O)cc2C3)cc1Cl` (racemic) [Compound 53, (±)-N-(5-Chloro-4-cyano-2-fluorophenyl)-3-oxo-3,5,6,7,8,9-hexahydro-2H-6,9-epiminocyclohepta[c]pyridazine-10-carboxamide], the IC50 was in the range of 500 to 5000 nM.

Turning to `O=C(Nc1cc(I)c(Cl)cc1F)N1[C@H]2CC[C@@H]1c1ccnc(F)c1C2` [Compound 78, (5R,8S)-N-(4-Chloro-2-fluoro-5-iodophenyl)-1-fluoro-6,7,8,9-tetrahydro-5H-5,8-epiminocyclohepta[c]pyridine-10-carboxamide], the IC50 lay in the range of 500 to 5000 nM.

With `COc1nccc2c1C[C@@H]1CC[C@H]2N1C(=O)Nc1cc(Cl)c(Cl)cc1F` [Compound 88, (5R,8S)-N-(4,5-Dichloro-2-fluorophenyl)-1-methoxy-6,7,8,9-tetrahydro-5H-5,8-epiminocyclohepta[c]pyridine-10-carboxamide], the IC50 was 500 to 5000 nM.

For the molecule `O=C(Nc1ccc(N2CC3CCC(C2)O3)cc1)N1[C@H]2CC[C@@H]1c1ccnc(F)c1C2` [Compound 62, (5R,8S)-N-(4-(8-Oxa-3-azabicyclo[3.2.1]octan-3-yl)phenyl)-1-fluoro-6,7,8,9-tetrahydro-5H-5,8-epiminocyclohepta[c]pyridine-10-carboxamide], the IC50 is > 5000 nM.

For the molecule `O=C(Nc1cc(Cl)c(-c2cncn2C2CCCCO2)cc1F)N1[C@H]2CC[C@@H]1c1n[nH]c(=O)cc1C2` (stereo partly drawn) [Compound 143, (6S,9R)-N-(5-Chloro-2-fluoro-4-(1-(tetrahydro-2H-pyran-2-yl)-1H-imidazol-5-yl)phenyl)-3-oxo-3,5,6,7,8,9-hexahydro-2H-6,9-epiminocyclohepta[c]pyridazine-10-carboxamide], the IC50 was in the range of 500 to 5000 nM.

With `CC1(c2ccc(NC(=O)N3[C@H]4CC[C@@H]3c3ccnc(F)c3C4)cc2)COC1` [Compound 61, (5R,8S)-1-Fluoro-N-(4-(3-methyloxetan-3-yl)phenyl)-6,7,8,9-tetrahydro-5H-5,8-epiminocyclohepta[c]pyridine-10-carboxamide], the IC50 is > 5000 nM.
